# According to patent US20070066580A1, “Novel aldosterone antagonists and uses thereof” (Recordati Ireland Limited, priority 2005, published 2007):
# Molecular target: T1, MR (Homo sapiens, UniProt P08235)
# T1 sequence (P08235 1-984): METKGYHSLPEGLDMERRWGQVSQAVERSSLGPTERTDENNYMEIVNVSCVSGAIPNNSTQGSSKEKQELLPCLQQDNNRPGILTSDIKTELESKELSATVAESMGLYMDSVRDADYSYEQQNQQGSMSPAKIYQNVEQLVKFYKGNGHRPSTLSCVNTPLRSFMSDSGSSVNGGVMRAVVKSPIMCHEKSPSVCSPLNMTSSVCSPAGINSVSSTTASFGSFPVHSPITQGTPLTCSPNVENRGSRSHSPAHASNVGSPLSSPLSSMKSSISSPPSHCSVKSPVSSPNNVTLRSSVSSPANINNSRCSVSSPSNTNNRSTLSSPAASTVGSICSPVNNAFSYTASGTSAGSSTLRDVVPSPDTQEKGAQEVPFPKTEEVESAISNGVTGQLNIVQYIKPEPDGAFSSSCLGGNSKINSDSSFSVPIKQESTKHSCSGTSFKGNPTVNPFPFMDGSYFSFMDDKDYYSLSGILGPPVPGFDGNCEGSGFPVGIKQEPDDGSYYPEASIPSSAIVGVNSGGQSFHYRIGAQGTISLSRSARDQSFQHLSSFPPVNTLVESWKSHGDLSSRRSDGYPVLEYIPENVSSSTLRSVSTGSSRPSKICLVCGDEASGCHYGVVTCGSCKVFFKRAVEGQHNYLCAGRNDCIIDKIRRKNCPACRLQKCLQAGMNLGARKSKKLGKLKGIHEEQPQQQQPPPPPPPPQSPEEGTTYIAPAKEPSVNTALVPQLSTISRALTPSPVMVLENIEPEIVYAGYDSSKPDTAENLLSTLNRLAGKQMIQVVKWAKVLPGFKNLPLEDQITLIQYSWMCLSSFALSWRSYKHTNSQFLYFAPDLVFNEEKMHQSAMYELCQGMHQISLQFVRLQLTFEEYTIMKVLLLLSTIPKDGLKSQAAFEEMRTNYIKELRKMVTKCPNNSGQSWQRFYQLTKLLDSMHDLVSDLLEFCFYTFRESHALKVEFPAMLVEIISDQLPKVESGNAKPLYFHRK
# Experiment: not given
# Settings: cited from earlier work
row,SMILES,"antimineralocorticoid potency, times more potent than spironolactone"
1,C[C@]12CCC(=O)C=C1[C@@H]1C[C@@H]1[C@H]1[C@@H]3[C@@H]4C[C@@H]4[C@@]4(CCC(=O)O4)[C@@]3(C)CC[C@@H]12,approximately 7.5 times

# Molecular target: T2, GAL4 DBD-hMR LBD fusion protein (Homo sapiens, UniProt P08235)
# T2 construct: expressed in transfected cells; host or cells: CV-1 cells (African green monkey kidney), transient co-transfection with pCMX-GAL4-based vector and Galp3TKLuc reporter
# Experiment: Cell-based luciferase assay, agonist mode (CV-1 cells)
# Settings: 10 μM of compound
# Text: GAL4 DBD-hMR LBD fusion protein expression vector: A pCMX-GAL4-based vector was used for the expression of a fusion protein composed of the amino acids 1-147 of the DNA binding domain of Saccharomyces cerevisiae GAL4 (GAL4 DBD) (SEQ ID NO: 16) and amino acid residues 729-984 of the ligand binding domain of human mineralocorticoid receptor (hMR LBD) (SEQ ID NO: 14). The expression vector contained an expression cassette of the nucleotide sequence for the GAL4 DBD (See SEQ ID NO: 19) ligated to nucleotides 2401 through 3168 of the human mineralocorticoid (hMR) receptor (SEQ ID NO: 13).
# In vitro cell culture: CV-1 cells (African green monkey kidney cell line, ATCC accession number CCL-70) were maintained in culture in 90% DMEM medium supplemented by 9% FCS and 1% Penicillin-Streptomycin-L-Glutamine at 37° C. under 8.5% CO2.
# These cells were transiently co-transfected with the GAL4 DBD-hMR LBD fusion protein expression vector and the Galp3TKLuc reporter gene vector using the FuGENE 6 Transfection Reagent (Roche) according to the manufacturer's instructions.
# Agonist assay: As a positive control, aldosterone (Acros Organics, catalogue # 215360050) was used at a concentration of 100 nM. The negative control sample was 90% DMEM medium supplemented by 9% charcoal-treated FCS and 1% Penicillin-Streptomycin-L-Glutamine containing 0.2% DMSO plus 0.02% ethanol. Positive control, negative control, or 10 μM final concentration of test compound was added to the cells and incubated for 24 hours at 37° C. under 8.5% CO2 before the Luciferase substrate (Promega, catalogue number #E2620) was added. After an incubation period of 5 min at RT, luminescence signals were read on a microplate reader (Molecular Devices/LJL Biosystems). Negative and positive controls were defined as 0% and 100% agonism, respectively. The agonistic potency of test compounds is given in % and was normalized to the positive and negative controls.
# T2 sequence (P08235 with tags, fused parts or gaps limits assumed): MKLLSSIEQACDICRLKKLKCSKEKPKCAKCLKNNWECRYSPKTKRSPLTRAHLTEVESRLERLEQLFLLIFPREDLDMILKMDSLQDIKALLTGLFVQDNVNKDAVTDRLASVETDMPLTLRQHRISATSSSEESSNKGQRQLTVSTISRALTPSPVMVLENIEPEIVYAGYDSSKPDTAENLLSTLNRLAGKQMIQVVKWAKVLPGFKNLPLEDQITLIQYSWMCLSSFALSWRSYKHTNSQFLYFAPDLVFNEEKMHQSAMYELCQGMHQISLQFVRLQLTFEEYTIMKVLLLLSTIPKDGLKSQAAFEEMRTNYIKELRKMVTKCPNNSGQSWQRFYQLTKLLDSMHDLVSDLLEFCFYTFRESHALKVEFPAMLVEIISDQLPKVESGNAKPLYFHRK
row,SMILES,potency for activation of MR relative to aldosterone
1,C=CCC[C@@H]1CC2=CC(=O)CC[C@]2(C)C2=CC[C@@]3(C)C(CC[C@@]34CCC(=O)O4)C21 (some centres unmarked) [Example 8],at least three orders of magnitude less potent than aldosterone
2,CCC[C@@H]1CC2=CC(=O)CC[C@]2(C)C2=CC[C@@]3(C)C(CC[C@@]34CCC(=O)O4)C21 (some centres unmarked) [Example 9],at least three orders of magnitude less potent than aldosterone
3,CCC[C@@H]1CC2=CC(=O)CC[C@]2(C)[C@@]23O[C@@H]2C[C@@]2(C)C(CC[C@@]24CCC(=O)O4)C13 (some centres unmarked) [Example 10],at least three orders of magnitude less potent than aldosterone
4,CCCS[C@@H]1CC2=CC(=O)CC[C@]2(C)[C@@]23O[C@@H]2C[C@@]2(C)C(CC[C@@]24CCC(=O)O4)C13 (some centres unmarked) [Example 12],at least three orders of magnitude less potent than aldosterone
5,C[C@]12CCC(=O)C=C1C[C@@H](SCC(F)(F)F)C1C2=CC[C@@]2(C)C1CC[C@@]21CCC(=O)O1 (some centres unmarked) [Example 18],at least three orders of magnitude less potent than aldosterone
6,C[C@@H]1CC2=CC(=O)CC[C@]2(C)C2=CC[C@@]3(C)C(CC[C@@]34CCC(=O)O4)C21 (some centres unmarked) [Example 26],at least three orders of magnitude less potent than aldosterone
7,CO/N=C/[C@@H]1CC2=CC(=O)CC[C@]2(C)C2=CC[C@@]3(C)C(CC[C@@]34CCC(=O)O4)C21 (some centres unmarked) [Example 34],at least three orders of magnitude less potent than aldosterone
8,C[C@]12CCC(=O)C=C1CCC1C3CC[C@@]4(COC(=O)O4)[C@@]3(C)C[C@H]3O[C@@]132 (some centres unmarked) [Example 41],at least three orders of magnitude less potent than aldosterone
9,CO/N=C/[C@@H]1CC2=CC(=O)CC[C@]2(C)[C@@]23O[C@@H]2C[C@@]2(C)C(CC[C@@]24CCC(=O)O4)C13 (some centres unmarked) [Example 52],at least three orders of magnitude less potent than aldosterone
10,CCC[C@@H]1CC2=CC(=O)CC[C@]2(C)C2=CC[C@@]3(C)C(C21)[C@@H]1C[C@@H]1[C@@]31CCC(=O)O1 (some centres unmarked) [Example 70],at least three orders of magnitude less potent than aldosterone
11,CCC[C@@H]1CC2=CC(=O)CC[C@]2(C)[C@@]23O[C@@H]2C[C@@]2(C)C(C13)[C@@H]1C[C@@H]1[C@@]21CCC(=O)O1 (some centres unmarked) [Example 71],at least three orders of magnitude less potent than aldosterone

# Molecular target: T3, ligand binding domain of the human mineralocorticoid receptor (hMR LBD) (Homo sapiens, UniProt P08235)
# T3 construct: made in house; host or cells: Sf9 insect cells (baculovirus, pFastBac)
# T3 sequence (P08235 729-984): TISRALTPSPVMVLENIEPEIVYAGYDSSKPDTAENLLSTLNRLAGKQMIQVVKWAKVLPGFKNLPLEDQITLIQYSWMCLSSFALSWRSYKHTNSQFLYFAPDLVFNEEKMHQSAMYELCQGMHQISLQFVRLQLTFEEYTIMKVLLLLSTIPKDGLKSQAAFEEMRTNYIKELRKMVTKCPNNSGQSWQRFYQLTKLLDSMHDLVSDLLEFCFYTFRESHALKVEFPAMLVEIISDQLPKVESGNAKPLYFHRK
# Experiment: Mineralocorticoid receptor (MR) in vitro competitive binding assay, [3H]aldosterone displacement
# Settings: IR^TOTAL = sum of IR^AR/MR, IR^ER/MR, IR^GR/MR, IR^PR/MR
# Experimental: Mineralocorticoid receptor (MR) binding assay: Spodoptera furgiperda (Sf9) insect cells (ATCC accession number CRL-1711) were maintained in culture in EX-CELL™ 420 serum free medium (JRH Biosciences, Inc.) at 27° C.
# A recombinant baculovirus containing nucleotide sequences encoding the ligand binding domain of the human mineralocorticoid receptor (hMR) cloned into the pFastBac™ vector was generated using the Bac-to-Bac® Baculovirus Expression System Kit (Invitrogen) following the manufacturer's instructions. This recombinant baculovirus contains nucleotides 2401 through 3168 (SEQ ID NO: 13) of hMR, providing for expression of the ligand binding domain (LBD), amino acid residues 729-984 (SEQ ID NO: 14), of hMR (hMR LBD). Cultured Sf9 insect cells were transfected with this recombinant baculovirus following the manufacturer's instructions.
# For the binding assay, a crude lysate of the hMR LBD-expressing insect cells was prepared. The crude lysate was diluted 12.5-fold with binding buffer (20 mM Tris-HCl pH 7.4, 1 mM EDTA, 1 mM dithiothreitol, 20 mM sodium tungstate, 50 mM KCl and 10% glycerol).
# For the negative control sample, the diluted lysate was incubated with a 10 nM final concentration of the radioligand [1,2,6,7-^3H] aldosterone (Amersham Biosciences, catalogue # 434) for 3.5 h at 4° C. For test compounds and the positive control sample, the diluted lysate was incubated with various concentrations of test compound or with a 20 μM final concentration of spironolactone (Sigma, S-3378) as a reference compound for 45 min on ice, and was then incubated with a 10 nM final concentration of [1,2,6,7-^3H] aldosterone for 3.5 h at 4° C.
# Using a CellHarvester (PerkinElmer, formerly Packard Biosciences), receptor/ligand complexes were retained on 96-well GF/B filters (PerkinElmer, formerly Packard Biosciences) while free radioligand passed through the filters. Scintillation counting of GF/B filter plates was performed using a TopCount NXT (PerkinElmer, formerly Packard Biosciences) to quantitate the amount of [1,2,6,7-^3H] aldosterone bound to the hMR LBD.
# The IC50 of a test compound was determined from the concentration of test compound giving half-maximal displacement as obtained by nonlinear least-squares curve fitting to a one-site binding sigmoidal model using Prism 3.0 (Graph Pad Software, Inc., San Diego, US). The calculated IC50 values represent the average values calculated from the results of 1-3 experiments carried out in duplicate.
# IC50 and inhibitory ratio calculations: To provide a measure of the potency of each test compound as an antagonist of MR, the IC50 of each test compound (IC50^Test) for ligand binding to MR and the IC50 of the known MR antagonists eplerenone (IC50^Ep) and spironolactone (IC50^Sp) for ligand binding to MR were used to calculate an IC50 ratio (RIC50) according to the following equations: RIC50^Ep/Test=IC50^Ep/IC50^Test and RIC50^Sp/Test=IC50^Sp/IC50^Test.
# These individual inhibitory ratios were used to calculate a total inhibitory ratio (IR^TOTAL) according to the following equation: IR^TOTAL=IR^AR/MR+IR^ER/MR+IR^GR/MR+IR^PR/MR. B. Results and Discussion
SMILES,IR^TOTAL compared with the IR^TOTAL for eplerenone,IR^TOTAL compared with the IR^TOTAL for spironolactone
CC(=O)S[C@@H]1CC2=CC(=O)CC[C@]2(C)C2=CC[C@@]3(C)C(CC[C@@]34CCC(=O)O4)C21 (some centres unmarked) [Example 11],at least an order of magnitude greater than the IR^TOTAL for eplerenone,greater than the IR^TOTAL for spironolactone
CC(=O)S[C@@H]1CC2=CC(=O)CC[C@]2(C)[C@@]23O[C@@H]2C[C@@]2(C)C(CC[C@@]24COC(=O)O4)C13 (some centres unmarked) [Example 46],at least an order of magnitude greater than the IR^TOTAL for eplerenone,greater than the IR^TOTAL for spironolactone
CO/N=C/[C@@H]1CC2=CC(=O)CC[C@]2(C)[C@@]23O[C@@H]2C[C@@]2(C)C(CC[C@@]24CCC(=O)O4)C13 (some centres unmarked) [Example 52],,greater than the IR^TOTAL for spironolactone
CCC[C@@H]1CC2=CC(=O)CC[C@]2(C)C2=CC[C@@]3(C)C(C21)[C@@H]1C[C@@H]1[C@@]31CCC(=O)O1 (some centres unmarked) [Example 70],at least an order of magnitude greater than the IR^TOTAL for eplerenone,at least an order of magnitude greater than the IR^TOTAL for spironolactone
C[C@]12CCC(=O)C=C1CCC1C2=CC[C@@]2(C)C1[C@@H]1C[C@@H]1[C@@]21COC(=O)O1 (some centres unmarked) [Example 75],at least an order of magnitude greater than the IR^TOTAL for eplerenone,at least an order of magnitude greater than the IR^TOTAL for spironolactone
C[C@]12CCC(=O)C=C1C[C@@H](C#N)C1C2=CC[C@@]2(C)C1[C@@H]1C[C@@H]1[C@@]21COC(=O)O1 (some centres unmarked) [Example 76],at least an order of magnitude greater than the IR^TOTAL for eplerenone,at least an order of magnitude greater than the IR^TOTAL for spironolactone
